Results reported in ChEMBL document CHEMBL1909046, “DrugMatrix in vitro pharmacology data”.
pIC50: −log10 of the molar value.

target: T1, Progesterone receptor (Bos taurus, UniProt Q690N0); assay: DRUGMATRIX: Progesterone radioligand binding (ligand: [3H] R-5020); assay type: tissue-based, Uterus; settings: Not Active = under 50% inhibition at 10 µM
T1 sequence (Q690N0 whole entry): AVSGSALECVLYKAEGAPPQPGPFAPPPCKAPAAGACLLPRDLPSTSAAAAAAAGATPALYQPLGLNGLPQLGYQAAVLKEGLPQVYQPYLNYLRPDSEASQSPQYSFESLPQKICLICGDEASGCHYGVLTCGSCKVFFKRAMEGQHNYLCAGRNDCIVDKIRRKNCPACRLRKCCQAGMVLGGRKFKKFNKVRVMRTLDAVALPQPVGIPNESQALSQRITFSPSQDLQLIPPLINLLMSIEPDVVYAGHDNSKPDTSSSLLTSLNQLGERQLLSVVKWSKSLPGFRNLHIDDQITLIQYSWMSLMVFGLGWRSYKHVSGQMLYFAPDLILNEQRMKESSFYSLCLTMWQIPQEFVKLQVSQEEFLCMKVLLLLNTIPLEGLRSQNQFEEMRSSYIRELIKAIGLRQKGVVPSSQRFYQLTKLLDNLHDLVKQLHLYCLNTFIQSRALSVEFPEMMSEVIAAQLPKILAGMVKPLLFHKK

| SMILES | IC50 |
| --- | --- |
| COc1cc(N)nc2[nH]c(-c3ccc(F)cc3)c(-c3ccncc3)c12 | Not Active |
| CNS(=O)(=O)Cc1ccc2[nH]cc(CCN(C)C)c2c1 | Not Active |
| CCCc1nn(C)c2c(=O)[nH]c(-c3cc(S(=O)(=O)N4CCN(C)CC4)ccc3OCC)nc12 | Not Active |
| COc1ccc(/C=C/C(=O)Nc2ccccc2C(=O)O)cc1OC | Not Active |
| CCOC(N)=O | Not Active |
| CC(=O)Nc1nnc(S(N)(=O)=O)s1 [ACETAZOLAMIDE] | Not Active |
| O=c1[nH]c2ccccc2n1CCCN1CCC(n2c(=O)[nH]c3cc(Cl)ccc32)CC1 [DOMPERIDONE] | Not Active |
| CC1=C(CC(=O)O)c2cc(F)ccc2/C1=C\c1ccc(S(C)(=O)=O)cc1 [EXISULIND] | Not Active |

target: T2, Neuropeptide Y receptor type 1 (Homo sapiens, UniProt P25929); assay: not given; assay type: cell membranes, Membrane; settings: sk-n-mc; note: in other assays of this panel Not Active means under 50% inhibition at 10 µM
T2 sequence (P25929 whole entry): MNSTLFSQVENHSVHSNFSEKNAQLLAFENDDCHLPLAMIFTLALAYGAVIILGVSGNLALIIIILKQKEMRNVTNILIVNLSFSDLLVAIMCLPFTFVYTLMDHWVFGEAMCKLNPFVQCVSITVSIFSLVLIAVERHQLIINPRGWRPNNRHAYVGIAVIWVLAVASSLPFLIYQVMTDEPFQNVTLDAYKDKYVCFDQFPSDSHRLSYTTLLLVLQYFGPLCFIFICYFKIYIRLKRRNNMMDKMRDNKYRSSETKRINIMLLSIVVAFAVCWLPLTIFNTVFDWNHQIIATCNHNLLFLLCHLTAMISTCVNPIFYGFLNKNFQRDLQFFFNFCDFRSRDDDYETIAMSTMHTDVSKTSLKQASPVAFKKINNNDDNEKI

| SMILES | IC50 |
| --- | --- |
| COc1cc(N)nc2[nH]c(-c3ccc(F)cc3)c(-c3ccncc3)c12 | Not Active |
| CNS(=O)(=O)Cc1ccc2[nH]cc(CCN(C)C)c2c1 | Not Active |
| CCCc1nn(C)c2c(=O)[nH]c(-c3cc(S(=O)(=O)N4CCN(C)CC4)ccc3OCC)nc12 | Not Active |
| COc1ccc(/C=C/C(=O)Nc2ccccc2C(=O)O)cc1OC | Not Active |
| CCOC(N)=O | Not Active |
| CC(=O)Nc1nnc(S(N)(=O)=O)s1 [ACETAZOLAMIDE] | Not Active |
| O=c1[nH]c2ccccc2n1CCCN1CCC(n2c(=O)[nH]c3cc(Cl)ccc32)CC1 [DOMPERIDONE] | Not Active |
| CC1=C(CC(=O)O)c2cc(F)ccc2/C1=C\c1ccc(S(C)(=O)=O)cc1 [EXISULIND] | Not Active |

target: Aldo-keto reductase family 1 member B1 (Rattus norvegicus, UniProt P07943); assay: biochemical; assay type: tissue-based, Lens of camera-type eye; settings: not given;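 note: inhibition of aldose reductase enzyme activity, measured with DL-glyceraldehyde as the substrate; in other assays of this panel Not Active means under 50% inhibition at 10 µM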

| SMILES | IC50 |
| --- | --- |
| COc1cc(N)nc2[nH]c(-c3ccc(F)cc3)c(-c3ccncc3)c12 | Not Active |
| CNS(=O)(=O)Cc1ccc2[nH]cc(CCN(C)C)c2c1 | Not Active |
| CCCc1nn(C)c2c(=O)[nH]c(-c3cc(S(=O)(=O)N4CCN(C)CC4)ccc3OCC)nc12 | Not Active |
| COc1ccc(/C=C/C(=O)Nc2ccccc2C(=O)O)cc1OC | Not Active |
| CCOC(N)=O | Not Active |
| CC(=O)Nc1nnc(S(N)(=O)=O)s1 [ACETAZOLAMIDE] | Not Active |
| O=c1[nH]c2ccccc2n1CCCN1CCC(n2c(=O)[nH]c3cc(Cl)ccc32)CC1 [DOMPERIDONE] | Not Active |

same assay, conditions: read-out: IC50

| SMILES | pIC50 |
| --- | --- |
| CC1=C(CC(=O)O)c2cc(F)ccc2/C1=C\c1ccc(S(C)(=O)=O)cc1 [EXISULIND] | 6.57 |

target: T3, Nitric oxide synthase, inducible (Mus musculus, UniProt P29477); assay: not given; parameters: species or system Escherichia coli; settings: not given;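 note: inhibition of iNOS enzyme activity measured with L-arginine as substrate; in other assays of this panel Not Active means under 50% inhibition at 10 µM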
T3 sequence (P29477 whole entry): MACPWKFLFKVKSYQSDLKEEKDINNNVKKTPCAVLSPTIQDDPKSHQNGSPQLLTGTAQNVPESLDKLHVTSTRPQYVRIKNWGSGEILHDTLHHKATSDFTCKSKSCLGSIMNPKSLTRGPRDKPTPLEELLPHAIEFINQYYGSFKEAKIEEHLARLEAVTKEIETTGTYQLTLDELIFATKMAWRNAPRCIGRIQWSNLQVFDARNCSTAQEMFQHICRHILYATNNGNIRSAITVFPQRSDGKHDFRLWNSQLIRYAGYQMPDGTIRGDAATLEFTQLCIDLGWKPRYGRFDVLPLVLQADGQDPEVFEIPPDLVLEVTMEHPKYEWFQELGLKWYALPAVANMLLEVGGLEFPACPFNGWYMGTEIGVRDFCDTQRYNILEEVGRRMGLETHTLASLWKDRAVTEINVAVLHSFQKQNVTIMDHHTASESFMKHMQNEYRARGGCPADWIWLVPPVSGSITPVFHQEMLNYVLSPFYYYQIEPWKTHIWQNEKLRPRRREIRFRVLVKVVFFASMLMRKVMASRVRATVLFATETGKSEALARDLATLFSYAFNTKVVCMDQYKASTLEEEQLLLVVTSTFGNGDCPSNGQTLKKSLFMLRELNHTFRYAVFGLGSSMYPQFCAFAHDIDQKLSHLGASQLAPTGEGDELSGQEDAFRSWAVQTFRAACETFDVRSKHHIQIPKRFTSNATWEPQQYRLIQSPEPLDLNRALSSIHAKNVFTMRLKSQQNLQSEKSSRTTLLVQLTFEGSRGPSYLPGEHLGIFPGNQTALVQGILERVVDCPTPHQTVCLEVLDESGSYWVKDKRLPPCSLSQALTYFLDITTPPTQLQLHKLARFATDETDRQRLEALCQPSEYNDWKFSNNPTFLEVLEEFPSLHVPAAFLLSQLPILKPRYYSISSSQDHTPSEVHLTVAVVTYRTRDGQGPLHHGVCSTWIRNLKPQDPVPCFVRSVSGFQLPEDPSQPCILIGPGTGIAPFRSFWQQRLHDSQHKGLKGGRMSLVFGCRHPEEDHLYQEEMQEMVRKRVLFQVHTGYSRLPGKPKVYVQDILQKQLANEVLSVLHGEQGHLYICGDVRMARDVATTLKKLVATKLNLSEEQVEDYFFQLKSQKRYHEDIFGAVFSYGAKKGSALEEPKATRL

| SMILES | IC50 |
| --- | --- |
| COc1cc(N)nc2[nH]c(-c3ccc(F)cc3)c(-c3ccncc3)c12 | Not Active |
| CNS(=O)(=O)Cc1ccc2[nH]cc(CCN(C)C)c2c1 | Not Active |
| CCCc1nn(C)c2c(=O)[nH]c(-c3cc(S(=O)(=O)N4CCN(C)CC4)ccc3OCC)nc12 | Not Active |
| COc1ccc(/C=C/C(=O)Nc2ccccc2C(=O)O)cc1OC | Not Active |
| CCOC(N)=O | Not Active |
| CC(=O)Nc1nnc(S(N)(=O)=O)s1 [ACETAZOLAMIDE] | Not Active |
| O=c1[nH]c2ccccc2n1CCCN1CCC(n2c(=O)[nH]c3cc(Cl)ccc32)CC1 [DOMPERIDONE] | Not Active |
| CC1=C(CC(=O)O)c2cc(F)ccc2/C1=C\c1ccc(S(C)(=O)=O)cc1 [EXISULIND] | Not Active |

target: Mitogen-activated protein kinase 1 (Homo sapiens, UniProt P28482); assay: DRUGMATRIX: Protein Serine/Threonine Kinase, ERK2 enzyme inhibition (substrate: Myelin Basic Protein); parameters: species or system Escherichia coli; settings: Not Active = under 50% inhibition at 10 µM
Sequence (P28482 whole entry): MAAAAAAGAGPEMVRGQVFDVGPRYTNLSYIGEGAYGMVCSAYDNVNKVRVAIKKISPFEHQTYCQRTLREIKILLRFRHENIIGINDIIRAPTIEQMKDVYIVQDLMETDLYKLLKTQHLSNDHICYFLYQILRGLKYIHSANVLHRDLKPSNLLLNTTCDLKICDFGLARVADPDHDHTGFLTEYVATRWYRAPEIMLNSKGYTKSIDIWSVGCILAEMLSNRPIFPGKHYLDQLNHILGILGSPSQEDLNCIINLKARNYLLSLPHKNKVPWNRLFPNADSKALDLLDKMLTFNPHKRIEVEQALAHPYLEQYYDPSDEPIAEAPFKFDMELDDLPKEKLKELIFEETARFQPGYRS

| SMILES | IC50 |
| --- | --- |
| COc1cc(N)nc2[nH]c(-c3ccc(F)cc3)c(-c3ccncc3)c12 | Not Active |
| CNS(=O)(=O)Cc1ccc2[nH]cc(CCN(C)C)c2c1 | Not Active |
| CCCc1nn(C)c2c(=O)[nH]c(-c3cc(S(=O)(=O)N4CCN(C)CC4)ccc3OCC)nc12 | Not Active |
| COc1ccc(/C=C/C(=O)Nc2ccccc2C(=O)O)cc1OC | Not Active |
| CCOC(N)=O | Not Active |
| CC(=O)Nc1nnc(S(N)(=O)=O)s1 [ACETAZOLAMIDE] | Not Active |
| O=c1[nH]c2ccccc2n1CCCN1CCC(n2c(=O)[nH]c3cc(Cl)ccc32)CC1 [DOMPERIDONE] | Not Active |

same assay, conditions: Not Active = under 50% inhibition at 10 µM; read-out: IC50

| SMILES | pIC50 |
| --- | --- |
| CC1=C(CC(=O)O)c2cc(F)ccc2/C1=C\c1ccc(S(C)(=O)=O)cc1 [EXISULIND] | 4.86 |

target: Beta-2 adrenergic receptor (Homo sapiens, UniProt P07550); assay: DRUGMATRIX: Adrenergic beta2 radioligand binding (ligand: [3H] CGP-12177); assay type: cell membranes, CHO, Membrane; settings: cho; Not Active = under 50% inhibition at 10 µM
Sequence (P07550 whole entry): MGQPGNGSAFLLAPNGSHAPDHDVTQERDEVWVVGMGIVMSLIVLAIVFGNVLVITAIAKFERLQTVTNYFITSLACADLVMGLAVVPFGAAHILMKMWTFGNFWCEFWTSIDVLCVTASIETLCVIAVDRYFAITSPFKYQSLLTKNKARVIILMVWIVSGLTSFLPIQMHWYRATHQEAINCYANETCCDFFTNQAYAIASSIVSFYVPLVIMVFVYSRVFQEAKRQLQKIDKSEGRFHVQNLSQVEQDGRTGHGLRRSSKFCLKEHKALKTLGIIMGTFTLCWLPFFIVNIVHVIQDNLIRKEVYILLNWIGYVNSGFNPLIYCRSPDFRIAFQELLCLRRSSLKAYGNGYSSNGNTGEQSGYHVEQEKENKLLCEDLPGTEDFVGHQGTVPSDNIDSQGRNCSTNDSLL

| SMILES | IC50 |
| --- | --- |
| COc1cc(N)nc2[nH]c(-c3ccc(F)cc3)c(-c3ccncc3)c12 | Not Active |
| CNS(=O)(=O)Cc1ccc2[nH]cc(CCN(C)C)c2c1 | Not Active |
| CCCc1nn(C)c2c(=O)[nH]c(-c3cc(S(=O)(=O)N4CCN(C)CC4)ccc3OCC)nc12 | Not Active |
| COc1ccc(/C=C/C(=O)Nc2ccccc2C(=O)O)cc1OC | Not Active |
| CCOC(N)=O | Not Active |
| CC(=O)Nc1nnc(S(N)(=O)=O)s1 [ACETAZOLAMIDE] | Not Active |
| O=c1[nH]c2ccccc2n1CCCN1CCC(n2c(=O)[nH]c3cc(Cl)ccc32)CC1 [DOMPERIDONE] | Not Active |
| CC1=C(CC(=O)O)c2cc(F)ccc2/C1=C\c1ccc(S(C)(=O)=O)cc1 [EXISULIND] | Not Active |

target: T4, Neuropeptide Y receptor type 2 (Homo sapiens, UniProt P49146); assay: not given; assay type: cell membranes, Membrane; settings: kan-ts; note: in other assays of this panel Not Active means under 50% inhibition at 10 µM
T4 sequence (P49146 whole entry): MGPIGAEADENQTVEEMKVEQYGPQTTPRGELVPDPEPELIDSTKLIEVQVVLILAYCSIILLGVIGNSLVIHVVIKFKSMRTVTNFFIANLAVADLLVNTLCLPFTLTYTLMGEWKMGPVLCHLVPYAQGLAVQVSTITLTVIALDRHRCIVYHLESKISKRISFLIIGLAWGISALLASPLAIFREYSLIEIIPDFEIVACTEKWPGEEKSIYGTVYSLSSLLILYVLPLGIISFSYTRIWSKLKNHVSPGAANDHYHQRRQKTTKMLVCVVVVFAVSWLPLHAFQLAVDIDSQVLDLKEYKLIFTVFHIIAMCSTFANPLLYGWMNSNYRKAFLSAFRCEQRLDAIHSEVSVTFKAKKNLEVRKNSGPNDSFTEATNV

| SMILES | IC50 |
| --- | --- |
| COc1cc(N)nc2[nH]c(-c3ccc(F)cc3)c(-c3ccncc3)c12 | Not Active |
| CNS(=O)(=O)Cc1ccc2[nH]cc(CCN(C)C)c2c1 | Not Active |
| CCCc1nn(C)c2c(=O)[nH]c(-c3cc(S(=O)(=O)N4CCN(C)CC4)ccc3OCC)nc12 | Not Active |
| COc1ccc(/C=C/C(=O)Nc2ccccc2C(=O)O)cc1OC | Not Active |
| CCOC(N)=O | Not Active |
| CC(=O)Nc1nnc(S(N)(=O)=O)s1 [ACETAZOLAMIDE] | Not Active |
| O=c1[nH]c2ccccc2n1CCCN1CCC(n2c(=O)[nH]c3cc(Cl)ccc32)CC1 [DOMPERIDONE] | Not Active |
| CC1=C(CC(=O)O)c2cc(F)ccc2/C1=C\c1ccc(S(C)(=O)=O)cc1 [EXISULIND] | Not Active |
